13 compounds from patent US20210284633A1, “3-(2-THIENYL)-5-(TRIFLUOROMETHYL)-1,2,4-OXADIAZOLE DERIVATIVES AS AGROCHEMICAL FUNGICIDES” (SYNGENTA CROP PROTECTION AG, priority 2018, published 2021) can be followed below.

Series [1] has as its system Puccinia recondita f. Sp. tritici. The series can be described thus: Puccinia recondita f. sp. tritici / wheat / leaf disc preventative (brown rust). The format is in vivo. The conditions noted are these: foliar, 200 ppm in the applied formulation, wheat leaf segments cv. Kanzler, inoculated 1 day after application, assessed 7 to 9 days after application, compared to untreated, read-out: disease control. The method, then: Leaf disks or leaf segments of various plant species are cut from plants grown in a greenhouse. The cut leaf disks or segments are placed in multiwell plates (24-well format) onto water agar. The leaf disks are sprayed with a test solution before (preventative) or after (curative) inoculation. Compounds to be tested are prepared as DMSO solutions (max. 10 mg/mL) which are diluted to the appropriate concentration with 0.025% Tween20 just before spraying. The inoculated leaf disks or segments are incubated under defined conditions (temperature, relative humidity, light, etc.) according to the respective test system. A single evaluation of disease level is carried out 3 to 14 days after inoculation, depending on the pathosystem. Percent disease control relative to the untreated check leaf disks or segments is then calculated. Example 1: Fungicidal Activity Against Puccinia recondita f. Sp. tritici/Wheat/Leaf Disc Preventative (Brown Rust) Wheat leaf segments cv. Kanzler were placed on agar in multiwell plates (24-well format) and sprayed with the formulated test compound diluted in water. The leaf disks were inoculated with a spore suspension of the fungus 1 day after application. The inoculated leaf segments were incubated at 19° C. and 75% relative humidity (rh) under a light regime of 12 hours light/12 hours darkness in a climate cabinet and the activity of a compound was assessed as percent disease control compared to untreated when an appropriate level of disease damage appears in untreated check leaf segments (7 to 9 days after application). The following compounds at 200 ppm in the applied formulation give at least 80% disease control in this test when compared to untreated control leaf disks under the same conditions, which show extensive disease development.

The test system is the same in series [2]. As to the kind of experiment: Puccinia recondita f. sp. tritici / wheat / leaf disc curative (brown rust). The format is in vivo. As to conditions: foliar, 200 ppm in the applied formulation, wheat leaf segments cv. Kanzler, applied 1 day after inoculation, assessed 6 to 8 days after application, compared to untreated, read-out: disease control. The method, then: Leaf disks or leaf segments of various plant species are cut from plants grown in a greenhouse. The cut leaf disks or segments are placed in multiwell plates (24-well format) onto water agar. The leaf disks are sprayed with a test solution before (preventative) or after (curative) inoculation. Compounds to be tested are prepared as DMSO solutions (max. 10 mg/mL) which are diluted to the appropriate concentration with 0.025% Tween20 just before spraying. The inoculated leaf disks or segments are incubated under defined conditions (temperature, relative humidity, light, etc.) according to the respective test system. A single evaluation of disease level is carried out 3 to 14 days after inoculation, depending on the pathosystem. Percent disease control relative to the untreated check leaf disks or segments is then calculated. Example 2: Fungicidal Activity Against Puccinia recondita f. sp. tritici/Wheat/Leaf Disc Curative (Brown Rust) Wheat leaf segments cv. Kanzler are placed on agar in multiwell plates (24-well format). The leaf segments are then inoculated with a spore suspension of the fungus. Plates were stored in darkness at 19° C. and 75% relative humidity. The formulated test compound diluted in water was applied 1 day after inoculation. The leaf segments were incubated at 19° C. and 75% relative humidity under a light regime of 12 hours light/12 hours darkness in a climate cabinet and the activity of a compound was assessed as percent disease control compared to untreated when an appropriate level of disease damage appears in untreated check leaf segments (6 to 8 days after application). The following compounds at 200 ppm in the applied formulation give at least 80% disease control in this test when compared to untreated control leaf disks under the same conditions, which show extensive disease development.

The test system of another series is Phakopsora pachurhizi. As to the kind of experiment: Phakopsora pachurhizi / soybean / leaf disc preventative (Asian soybean rust). As to conditions: Glycine max, foliar, 200 ppm in the applied formulation, soybean leaf disks, inoculated one day after application, assessed 12 to 14 days after application, compared to untreated, read-out: disease control. The format is in vivo. The method, then:
Leaf disks or leaf segments of various plant species are cut from plants grown in a greenhouse. The cut leaf disks or segments are placed in multiwell plates (24-well format) onto water agar. The leaf disks are sprayed with a test solution before (preventative) or after (curative) inoculation. Compounds to be tested are prepared as DMSO solutions (max. 10 mg/mL) which are diluted to the appropriate concentration with 0.025% Tween20 just before spraying. The inoculated leaf disks or segments are incubated under defined conditions (temperature, relative humidity, light, etc.) according to the respective test system. A single evaluation of disease level is carried out 3 to 14 days after inoculation, depending on the pathosystem. Percent disease control relative to the untreated check leaf disks or segments is then calculated.
Example 3: Fungicidal Activity Against Phakopsora pachurhizi/Soybean/Leaf Disc Preventative (Asian Soybean Rust)
Soybean leaf disks are placed on water agar in multiwell plates (24-well format) and sprayed with the formulated test compound diluted in water. One day after application leaf discs are inoculated by spraying a spore suspension on the lower leaf surface. After an incubation period in a climate cabinet of 24-36 hours in darkness at 20° C. and 75% rh leaf disc are kept at 20° C. with 12 hours light/day and 75% rh. The activity of a compound is assessed as percent disease control compared to untreated when an appropriate level of disease damage appears in untreated check leaf disks (12 to 14 days after application).
The following compounds at 200 ppm in the applied formulation give at least 80% disease control in this test when compared to untreated control leaf disks under the same conditions, which show extensive disease development.

The subject of the next series is Glomerella lagenarium. The series can be described thus: Glomerella lagenarium liquid culture / cucumber / preventative (anthracnose). As to conditions: Colletotrichum orbiculare; 20 ppm in the applied formulation; liquid culture in PDB, 24° C.; measured 3 to 4 days after application; compared to untreated; read-out: disease control (inhibition of growth, photometric). The format is cell-based. The method, then:
Mycelia fragments or conidia suspensions of a fungus prepared either freshly from liquid cultures of the fungus or from cryogenic storage, are directly mixed into nutrient broth. DMSO solutions of the test compound (max. 10 mg/mL) are diluted with 0.025% Tween20 by a factor of 50 and 10 μL of this solution is pipetted into a microtiter plate (96-well format). The nutrient broth containing the fungal spores/mycelia fragments is then added to give an end concentration of the tested compound. The test plates are incubated in the dark at 24° C. and 96% relative humidity. The inhibition of fungal growth is determined photometrically after 2 to 7 days, depending on the pathosystem, and percent antifungal activity relative to the untreated check is calculated. Example 4: Fungicidal activity against Glomerella lagenarium liquid culture/cucumber/Preventative (Anthracnose) Conidia of the fungus from cryogenic storage are directly mixed into nutrient broth (PDB—potato dextrose broth). After placing a (DMSO) solution of test compound into a microtiter plate (96-well format), the nutrient broth containing the fungal spores is added. The test plates are incubated at 24° C. and the inhibition of growth is measured photometrically 3 to 4 days after application. The following compounds at 20 ppm in the applied formulation give at least 80% disease control in this test when compared to untreated control under the same conditions, which show extensive disease development.

Usually inhibition stands for the change of the read-out against control, counted positive when it falls. As to `Cc1ccc(C(O)c2ccc(-c3noc(C(F)(F)F)n3)s2)nc1` (stereo not drawn) [Compound 1.13, (5-methyl-2-pyridyl)-[5-[5-(trifluoromethyl)-1,2,4-oxadiazol-3-yl]-2-thienyl]methanol], the pest or weed control at 200 ppm (in series [1]; in series [2]; with Phakopsora pachurhizi) was ≥ 80% each time. For the same compound, in the series with Glomerella lagenarium, the inhibition at 20 ppm was ≥ 80%.
On to `Cc1cnc(Cc2ccc(-c3noc(C(F)(F)F)n3)s2)cn1` [Compound 1.1, 3-[5-[(5-methylpyrazin-2-yl)methyl]-2-thienyl]-5-(trifluoromethyl)-1,2,4-oxadiazole], for which the pest or weed control at 200 ppm (in series [1]; in series [2]; in the series on Phakopsora pachurhizi) was ≥ 80% each time. The inhibition at 20 ppm with Glomerella lagenarium was ≥ 80%.
For orientation: melting point means the temperature of the solid-liquid transition. `Cc1ccc(C(=O)c2ccc(-c3noc(C(F)(F)F)n3)s2)nc1` [Compound 1.12, (5-methyl-2-pyridyl)-[5-[5-(trifluoromethyl)-1,2,4-oxadiazol-3-yl]-2-thienyl]methanone] came in with a melting point of 111 to 114 °C. Also, the pest or weed control at 200 ppm in series [1] is ≥ 80%. For the same compound, the pest or weed control at 200 ppm in series [2] is ≥ 80%. In addition, the pest or weed control at 200 ppm in the series with Phakopsora pachurhizi is ≥ 80%. Also, in the series with Glomerella lagenarium, the inhibition at 20 ppm is ≥ 80%.
Regarding `OC(c1cnccn1)c1ccc(-c2noc(C(F)(F)F)n2)s1` (stereo not drawn) [Compound 1.6, pyrazin-2-yl-[5-[5-(trifluoromethyl)-1,2,4-oxadiazol-3-yl]-2-thienyl]methanol], the pest or weed control at 200 ppm in series [1] and in series [2] was ≥ 80% throughout. The inhibition at 20 ppm with Glomerella lagenarium is ≥ 80%.
Compound `Cc1cnc(C(=O)c2ccc(-c3noc(C(F)(F)F)n3)s2)cn1` [Compound 1.2, (5-methylpyrazin-2-yl)-[5-[5-(trifluoromethyl)-1,2,4-oxadiazol-3-yl]-2-thienyl]methanone] came in with a melting point of 105 to 110 °C. For the same compound, in series [1], the pest or weed control at 200 ppm was ≥ 80%. The pest or weed control at 200 ppm in series [2] is ≥ 80%. Moreover, the pest or weed control at 200 ppm in the series on Phakopsora pachurhizi was ≥ 80%. The inhibition at 20 ppm in the series with Glomerella lagenarium is ≥ 80%.
On to `Cc1ccc(Cc2ccc(-c3noc(C(F)(F)F)n3)s2)nc1` [Compound 1.11, 3-[5-[(5-methyl-2-pyridyl)methyl]-2-thienyl]-5-(trifluoromethyl)-1,2,4-oxadiazole], for which the melting point was in the range of 40 to 45 °C. Also, in series [1], the pest or weed control at 200 ppm was ≥ 80%. The pest or weed control at 200 ppm in series [2] was ≥ 80%. Further, the pest or weed control at 200 ppm in the series on Phakopsora pachurhizi was ≥ 80%. For the same compound, the inhibition at 20 ppm with Glomerella lagenarium was ≥ 80%.
On to `O=C(c1cnc(Cl)cn1)c1ccc(-c2noc(C(F)(F)F)n2)s1` [Compound 1.9, (5-chloropyrazin-2-yl)-[5-[5-(trifluoromethyl)-1,2,4-oxadiazol-3-yl]-2-thienyl]methanone], for which the melting point lay in the range of 80 to 85 °C. Also, in series [1], the pest or weed control at 200 ppm is ≥ 80%. The pest or weed control at 200 ppm in series [2] is ≥ 80%. Besides, the inhibition at 20 ppm in the series with Glomerella lagenarium was ≥ 80%.
In the case of `FC(F)(F)c1nc(-c2ccc(Cc3cnccn3)s2)no1` [Compound 1.4, 3-[5-(pyrazin-2-ylmethyl)-2-thienyl]-5-(trifluoromethyl)-1,2,4-oxadiazole], the pest or weed control at 200 ppm (in series [1]; in series [2]; in the series on Phakopsora pachurhizi) was ≥ 80% each time. For the same compound, in the series on Glomerella lagenarium, the inhibition at 20 ppm was ≥ 80%.
Compound `Cc1cnc(C(O)c2ccc(-c3noc(C(F)(F)F)n3)s2)cn1` (stereo not drawn) [Compound 1.3, (5-methylpyrazin-2-yl)-[5-[5-(trifluoromethyl)-1,2,4-oxadiazol-3-yl]-2-thienyl]methanol] returned a melting point of 95 to 100 °C. Further, the pest or weed control at 200 ppm in series [1] was ≥ 80%. Also, the pest or weed control at 200 ppm in series [2] is ≥ 80%. The pest or weed control at 200 ppm in the series with Phakopsora pachurhizi is ≥ 80%. Further, the inhibition at 20 ppm in the series with Glomerella lagenarium was ≥ 80%.
For the compound `CCC(O)(c1ccc(C)cn1)c1ccc(-c2noc(C(F)(F)F)n2)s1` (stereo not drawn) [Compound 1.10, 1-(5-methyl-2-pyridyl)-1-[5-[5-(trifluoromethyl)-1,2,4-oxadiazol-3-yl]-2-thienyl]propan-1-ol], the pest or weed control at 200 ppm (in series [1]; in series [2]; with Phakopsora pachurhizi) was ≥ 80% throughout. Moreover, the inhibition at 20 ppm in the series with Glomerella lagenarium is ≥ 80%.
Compound `O=C(c1ncccn1)c1ccc(-c2noc(C(F)(F)F)n2)s1` [Compound 1.7, pyrimidin-2-yl-[5-[5-(trifluoromethyl)-1,2,4-oxadiazol-3-yl]-2-thienyl]methanone] returned a melting point of 110 to 116 °C. Further, in series [1], the pest or weed control at 200 ppm is ≥ 80%. For the same compound, in series [2], the pest or weed control at 200 ppm is ≥ 80%. Besides, the pest or weed control at 200 ppm in the series with Phakopsora pachurhizi is ≥ 80%. In addition, the inhibition at 20 ppm in the series with Glomerella lagenarium was ≥ 80%.
Regarding `O=C(c1cnccn1)c1ccc(-c2noc(C(F)(F)F)n2)s1` [Compound 1.5, pyrazin-2-yl-[5-[5-(trifluoromethyl)-1,2,4-oxadiazol-3-yl]-2-thienyl]methanone], the melting point was in the range of 95 to 105 °C. For the same compound, in series [1], the pest or weed control at 200 ppm is ≥ 80%. Moreover, the pest or weed control at 200 ppm in series [2] is ≥ 80%. Moreover, the pest or weed control at 200 ppm with Phakopsora pachurhizi is ≥ 80%. For the same compound, the inhibition at 20 ppm in the series with Glomerella lagenarium is ≥ 80%.
For the compound `Cc1ccc(C(=O)c2ccc(-c3noc(C(F)(F)F)n3)s2)nc1C` [Compound 1.8, (5,6-dimethyl-2-pyridyl)-[5-[5-(trifluoromethyl)-1,2,4-oxadiazol-3-yl]-2-thienyl]methanone], the melting point was 98 to 112 °C. Further, the pest or weed control at 200 ppm in series [1] was ≥ 80%. Also, the pest or weed control at 200 ppm in series [2] was ≥ 80%. Also, the pest or weed control at 200 ppm in the series on Phakopsora pachurhizi was ≥ 80%.
